Data from patent publication US20230414759A1, “NOVEL CYCLIC PEPTIDES BASED ON NANOBIOSTRUCTURAL CONTROL, PEPTIDESOMES WITH CORE/SHELL STRUCTURE COMPRISING SAME, AND USES THEREOF” (UIF (University Industry Fpimdatopm), Yonsei University, priority 2022, published 2023).

Experiments:
SCC7 cell-derived cancer = assay: In-vivo antitumor efficacy (PDT) in xenograft mouse model; conditions: after 14 days
Description: SCC7 tumor-bearing mouse models were prepared similarly to the biodistribution analysis. When the tumor volume reached approximately 50 mm^3, the sample was intravenously injected into the xenograft mice. 3 hours after the sample injection, NIR laser (671 nm) was irradiated to the tumor site with a power of 0.53 W/cm^2 for 15 minutes, and the same sample injection and NIR irradiation were repeated on the next day. The tumor volume and body weight were recorded every two days. At the end of the therapy, major organs and tumors were dissected for histological analysis. […]
Squamous cell carcinoma 7 (SSC7) cells were cultured in an RPMI 1640 medium containing 10% FBS, 1% L-glutamine, 1% penicillin, streptomycin, etc. in a 37° C. incubator maintained at 5% carbon dioxide. The cultured cells were detached from the bottom of the flask using trypsin/EDTA and cell viability was evaluated by trypan blue exclusion assay. […]
After the injection of the sample to each group, tumor volume and body weight were recorded 2 days, 4 days, 6 days, 8 days, 10 days, 12 days and 14 days later. […] The organs and cancer tissues were fixed, prepared into cryosections, stained with hematoxylin and eosin (H&E) and observed with a fluorescence microscope (Axiolmager A1, Zeiss, Germany).

SCC7 cells [1] = assay: Cellular uptake by CLSM and flow cytometry (FACS); assay type: cell-based; conditions: 2 μg/mL, 4 hours
Description: Analysis of intracellular delivery efficiency and FACS in vitro Cellular uptake of materials in SCC7 cells was analyzed based on the intrinsic fluorescence of Pa via CLSM (LSM700, Carl Zeiss, Germany) and flow cytometry (FACS Canto II, BD Biosciences, Bedford, MA, USA). SCC7 cells were seeded onto a 24-well plate at a density of 5×10^4 and incubated overnight. Then, […] of a sample was added to […] of a culture medium for each well. The cells were treated with the sample for 4 hours. Then, the sample was removed and the cells were washed. For cell imaging, cell nuclei were stained with Hoechst 33342.
SCC7 cells were seeded in a 24-well plate at a density of 5×10^4 and incubated overnight. Then, […] of the sample was added to […] of a culture medium. The cells were treated with the sample for 4 hours, followed by removal of the sample and washing. For cell imaging, the cell nuclei were stained with Hoechst 33342. The uptake of materials by the SCC7 cells was analyzed based on the intrinsic fluorescence of Pa via CLSM (LSM700, Carl Zeiss, Germany) and flow cytometry (FACS Canto II, BD Biosciences, Bedford, MA, USA).
As the samples, 2 μg/mL of free Pa, 2 μg/mL of the coassembled peptidesome of Example 4-6d (R6:RGD2<-Pa) (1:9) (G&G) and 2 μg/mL of the coassembled peptidesome of Example 4-6d (R6:RGD2<-Pa) (1:9) (DW) were used. […]

[2] = cited from earlier work
SCC7 cells [3] = assay: Photodynamic killing of cancer cells, MTT assay after laser irradiation; assay type: cell-based; conditions: 24 hours, IR laser 671 nm 1.59 J/cm^2, peptidesome in DW
Description: SSC7 (squamous cell carcinoma 7) cells were treated with free Pa or the coassembled peptidesome of Example 4-6d (R6:RGD2<-Pa) (1:9) at 30 μM for 24 hours, followed by infrared (IR) laser (671 nm) irradiation at 1.59 J/cm^2. Cytotoxicity as a measure of the photodynamic killing of the cancer cells was determined by MTT assay.
As the samples, 2 μg/mL of free Pa, 2 μg/mL of the coassembled peptidesome of Example 4-6d (R6:RGD2<-Pa) (1:9) (G&G) and 2 μg/mL of the coassembled peptidesome of Example 4-6d (R6:RGD2<-Pa) (1:9) (DW) were used. DW means that distilled water was used instead of the G&G solution.

[4] = Average hydrodynamic diameter of peptidesomes by DLS at different temperatures; assay type: physicochemical; conditions: distilled water, 20-40° C.
Description: The size of self-assembled nanoparticles (SNPs) was analyzed by a dynamic light scattering size distributor (particle size & zeta potential analyzer, ELS-1000ZS, Otsuka Electronics, Japan) using a UV-transparent cuvette having a path length of 1 cm. The secondary structure of the cyclic peptides of SPNs was analyzed using a Chirascan circular dichroism spectrometer equipped with a Peltier temperature controller (Applied Photophysics, UK). The CD (circular dichroism) spectra of samples were analyzed in a range of 190-260 nm using a cuvette having a path length of 2 mm. The molar residue ellipticity of the samples was calculated per amino acid residue. All mouse experiments were conducted under an animal protocol approved by the Catholic University of Korea on Laboratory Animal Care (2020-0359-05).
It was confirmed from the foregoing experiment that the cyclic peptides prepared in Examples 2-1 to 2-3 form vesicular self-assembled structure when stored in distilled water (DW). The average hydrodynamic diameter (Dn) of the self-assembled structures was measured by dynamic light scattering (DLS) at different temperatures (20° C., 30° C., 40° C.).

Compound | weight of the excised tumor (SCC7 cell-derived cancer; 2 mg/kg, tail vein, NIR laser) | excised tumor weight of free Pa group relative to peptidesome<-Pa(G&G) group (SCC7 cell-derived cancer) | cell internalization efficiency of free Pa relative to the coassembled peptidesome (SCC7 cells [1]) | water solubility [2] | PDT effect (cell viability after laser irradiation) (SCC7 cells [3]) | average diameter of peptidesome (DLS) [4]
pheophorbide a [free Pa] | 1,222 mg | approximately 3 times | 5 fold | 14 µg/mL | dose-dependent PDT effect | –
CCCCCCCCCCCC(=O)N[C@H]1CCCCNC(=O)[C@H](Cc2c[nH]c3ccccc23)NC(=O)CCC(=O)NCCOCCOCCNC(=O)[C@H](CCCNC(=N)N)NC(=O)[C@H](CCCNC(=N)N)NC(=O)CCC(=O)NCCOCCOCCNC(=O)[C@H](Cc2c[nH]c3ccccc23)NC1=O [Example 2-1] | – | – | – | – | – | 99-127 nm
